# In paper PMC7728344, “Pharmacokinetic Characterization of (Poly)phenolic Metabolites in Human Plasma and Urine after Acute and Short-Term Daily Consumption of Mango Pulp” (Molecules, 2020):
# Experiment: Concentration of (poly)phenolic metabolites in fasting urine at baseline, 24 h after single MP beverage and 15th day after 14-day MP intake (UHPLC-QQQ-MS)
# Conditions: human fasting urine; 24 h after single-time MP beverage intake
# From the text: The acute trial was a randomized, 3 arm, within-subject crossover study design (Figure 5A). The trial initiated with 3 days of food record collection to assess background (pre-study) dietary intake followed by counseling to adhere to a diet devoid of mango or its parts and relatively low in polyphenol-rich beverages/foods, which was maintained throughout the duration of the trial. […] In general, subjects were encouraged to follow their “usual” diet with the exception of foods/beverages that may interfere with the outcomes of the study. Food intake diaries and, phone call and email reminders helped subjects maintain compliance throughout the study period. After an initial 7-day run-in period on the limited polyphenol diet, subjects were assigned to a randomization sequence providing 1 of 3 study test beverages (recipes provided in Appendix A, Table A3) on three separate days in a random order: MP (500 g), MP (500 g) + VC (100 mg) or VC (100 mg) beverages. On each study day subjects arrived fasted and well hydrated. After standard admission procedures were completed (e.g., review of compliance with dietary requirements for 3 days prior to study day, dinner meal intake, usual sleep patterns), a catheter was placed by a registered nurse in subjects’ non-dominant arm and a fasting/baseline blood sample was collected (0 h). Subjects were provided with a standard breakfast meal 2 h after the study beverages. The breakfast meal was comprised of a buttermilk biscuit with butter and jelly, and scrambled egg white with shredded white cheddar cheese. After the 6 h blood collection, subjects ate a low polyphenol lunch consisting of dry roasted peanuts and fresh peeled cucumber with ranch dressing (Appendix A, Table A3).
# Spot urine samples were collected in urine collection cups, immediately placed on ice and then aliquoted into individual cryovials. All the samples were stored at −80 °C until analysis.
# A 14-day feeding trial was conducted with the MP only to study the effect of repetitive intake of MP on (poly)phenolic metabolite profiles. Upon completion of the acute trial, subjects were instructed to continue on the low polyphenolic diet for 2 weeks while consuming MP beverages (provided by CNRC) daily in the morning (250 g MP + 50 g water) and evening (250 g MP + 50 g water). On day 14, subjects consumed both beverages (500 g of MP in total) in the morning and reported to the CNRC on the 15th day after an overnight fast to provide a fasting blood and urine sample (Figure 5B). Blood and urine samples were collected as described above and stored at −80 °C until analysis.
# The supernatant was collected and filtered through 0.2 µm polypropylene syringe filter before HPLC analysis.
# The ESI conditions were the same as those used in the UHPLC-Q-TOF analysis. The quantification of the compounds was conducted by multiple-reaction monitoring (MRM) transitions. Spectra were recorded in both positive- and negative-ion mode with capillary voltage of 4500 V and drying gas flow rate of 9 L/min at 200 °C. The sheath gas temperature and flow rate were 300 °C and 11 L/min, respectively. Standards were optimized for collision energies, fragmentor voltages and MRM transitions using Mass Hunter Optimizer. The MRM transition for metabolites were created based on the results from UHPLC-Q-TOF-MS. Standards for plasma analysis were prepared in blank plasma (charcoal-stripped human plasma obtained from Bioreclamation IVT) for matrix match and for urine analysis were prepared in SMP.
# The flow rate was maintained at 0.4 mL/min and the injection volume was 5 μL. The mobile phase consisted of acidified water (0.1% formic acid) (A) and acidified acetonitrile (0.1% formic acid) (B). The gradient for the separation of compounds was as follows: 5 to 5% B from 0 to 1 min; 10% B at 3 min; 15% B at 7 min; 15% B at 9 min; 20% B at 10 min; 20% B at 11 min; 25% B at 12 min; 30% B at 13 min; 30% B at 14 min; 95% B at 15 min; and back to 5% B at 16 min.
row,"Concentration in fasting urine, Mean ± std Error, 24 h (Fasting)",Structure (SMILES)
1,Not detected,O=C(O)/C=C/c1ccc(O)c(O)c1 [Caffeic acid]

# Same assay, conditions: human, urine, oral
row,concentration at 15 day,Structure (SMILES)
1,0.3 ± 0.1 µM,"O=C(O)c1cccc(O)c1O [2,3-Dihydroxybenzoic acid]"
2,7.9 ± 2.7 µM,"O=C(O)c1cc(O)ccc1O [2,5-Dihydroxybenzoic acid]"
3,0.8 ± 0.2 µM,"O=C(O)c1ccc(O)c(O)c1 [3,4-Dihydroxybenzoic acid]"
4,3.8 ± 0.4 µM,"O=C(O)Cc1ccc(O)c(O)c1 [3,4-Dihydroxyphenylacetic acid]"
5,5.4 ± 0.8 µM,O=C(O)c1ccc(O)cc1 [4-Hydroxybenzoic acid]
6,0.1 µM,O=C(O)/C=C/c1ccc(O)c(O)c1 [Caffeic acid]
7,1.7 ± 0.2 µM,COc1cc(C(=O)O)cc(OC)c1O [Syringic acid]
8,4.1 ± 1 µM,COc1cc(C(=O)O)ccc1O [Vanillic acid]

# Second part, the molecule before the results:
row,Structure (SMILES),concentration at 15 day
1,Oc1ccccc1O [Catechol],15.1 ± 4 µM
2,O=Cc1ccc(O)cc1 [Compound 4-Hydroxybenzaldehyde],0.2 µM
3,O=C(O)CNC(=O)c1ccccc1 [Hippuric acid],2020 ± 242 µM
4,O=C(O)/C=C/c1ccccc1O [o-Coumaric acid],0.5 ± 0.1 µM
5,O=C(O)C=Cc1ccc(O)cc1 [p-Coumaric acid],0.3 µM

# Same assay, conditions: human, urine, oral, 500 g
concentration at 0 h,concentration at 24 h,Structure (SMILES)
0.3 ± 0.1 µM,0.2 ± 0.1 µM,"O=C(O)c1cccc(O)c1O [2,3-Dihydroxybenzoic acid]"
6.7 ± 1.6 µM,4.9 ± 1 µM,"O=C(O)c1cc(O)ccc1O [2,5-Dihydroxybenzoic acid]"
2.4 ± 0.7 µM,1.1 ± 0.3 µM,"O=C(O)c1ccc(O)c(O)c1 [3,4-Dihydroxybenzoic acid]"
8 ± 1.6 µM,4.5 ± 0.8 µM,"O=C(O)Cc1ccc(O)c(O)c1 [3,4-Dihydroxyphenylacetic acid]"
6.1 ± 1 µM,5.9 ± 0.9 µM,O=C(O)c1ccc(O)cc1 [4-Hydroxybenzoic acid]
0.1 µM,–,O=C(O)/C=C/c1ccc(O)c(O)c1 [Caffeic acid]
3.6 ± 0.4 µM,5.9 ± 0.8 µM,COc1cc(C(=O)O)cc(OC)c1O [Syringic acid]
4.9 ± 0.9 µM,4.4 ± 0.7 µM,COc1cc(C(=O)O)ccc1O [Vanillic acid]

# Further lines, the molecule ahead of its results:
Structure (SMILES),concentration at 0 h,concentration at 24 h
Oc1ccccc1O [Catechol],18.7 ± 12.2 µM,15.7 ± 4.1 µM
O=Cc1ccc(O)cc1 [Compound 4-Hydroxybenzaldehyde],0.2 ± 0.1 µM,0.2 µM
O=C(O)CNC(=O)c1ccccc1 [Hippuric acid],–,3710 ± 582 µM
O=C(O)/C=C/c1ccccc1O [o-Coumaric acid],0.9 ± 0.1 µM,0.9 µM
O=C(O)C=Cc1ccc(O)cc1 [p-Coumaric acid],0.5 ± 0.1 µM,0.4 ± 0.1 µM

# Same assay, conditions: in vivo
"Concentration in fasting urine, Mean ± std Error, 0 h (Fasting)","Concentration in fasting urine, Mean ± std Error, 15 Days (Fasting)","Concentration in fasting urine, Mean ± std Error, 24 h (Fasting)",Structure (SMILES)
3.1 ± 0.8 µM,4.4 ± 1.9 µM,2.0 ± 0.3 µM,O=C(O)CCc1cccc(O)c1 [3-Hydroxyphenylpropanoic acid]
0.5 ± 0.1 µM,0.4 ± 0.1 µM,0.4 ± 0.1 µM,COc1cc(/C=C/C(=O)O)ccc1O [Ferulic acid]
0.8 ± 0.1 µM,0.7 ± 0.1 µM,0.7 ± 0.1 µM,O=C(O)/C=C/c1cccc(O)c1 [m-Coumaric acid]

# The next lines start with the molecule.
Structure (SMILES),"Concentration in fasting urine, Mean ± std Error, 0 h (Fasting)","Concentration in fasting urine, Mean ± std Error, 15 Days (Fasting)","Concentration in fasting urine, Mean ± std Error, 24 h (Fasting)"
O=C(O)Cc1ccc(O)cc1 [4-Hydroxyphenylacetic acid],4.2 ± 1.3 µM,3.0 ± 0.9 µM,2.6 ± 0.6 µM
Cc1ccc(C(=O)NCC(=O)O)cc1 [4-Methylhippuric acid],2.0 ± 1.0 µM,1.2 ± 0.4 µM,1.5 ± 0.9 µM
COC(=O)CNC(=O)c1ccccc1 [Methyl hippurate],2.8 ± 2.3 µM,6.3 ± 1.7 µM,7.8 ± 2.1 µM
